Assay results reported in patent publication US10441669B2, “Multifunctional chelators, complexes, and compositions thereof, and methods of using same” (ILLINOIS INSTITUTE OF TECHNOLOGY, priority 2013, dated 2019).
Where two headings read alike, the source gives them in different places.

What was measured:
[1] = set-up: species or system mice; settings: mouse, in vivo
[2] = pH 7
Method: (§3) In vitro serum stability of 5p-C-NETA and NETA-RGD conjugates radiolabeled with ^90Y or ^177Lu was performed to determine if NETA chelators or NETA-RGD conjugates radiolabeled with ^90Y or ^177Lu remained stable without loss of ^90Y or ^177Lu in human serum. This was assessed by measuring the transfer of ^90Y or ^177Lu from the complex to serum proteins over the course of 14 days using ITLC. ^90Y or ^177Lu-radiolabeled complexes was prepared from the reactions of the bifunctional chelators with ^90Y or ^177Lu at room temperature and directly used for serum stability studies (37° C., pH 7).

[3] = pH 7; remark: listed apart in the source
Method: as §3

[4] = In vitro serum stability of 90Y-radiolabeled 3p-C complexes; format: in vitro ADME; settings: human serum, 37° C., in 72 h (3 days)
Method: (§1) A significant amount of the radioactivity from both ^90Y-3p-C-DEPA (4) and ^177Lu-3p-C-DEPA (4) was transchelated to serum (25% and 40% in 72 h, respectively). As expected, both ^90Y and ^177Lu complexes of 3p-C-NOTA […] were not stable in serum, and ˜80% of ^90Y and ˜36% of ^177Lu was released from the complexes on day 7. […] However, ^90Y-3p-C-NE3TA underwent rapid dissociation, losing ˜25% of ^90Y to serum in 3 days.
(§2) Human serum was purchased from Gemini Bioproducts (#100110). ^90Y- or ^177Lu-radiolabeled complexes (0.25M NH40OAc, pH 5.5) were prepared from the reaction of chelators with ^90Y or ^177Lu at room temperature or 37° C. Completion of radiolabeling was monitored by ITLC eluted, and the freshly prepared radiolabeled complexes were used for serum stability without further purification. ^90Y-3p-C-DETA, ^90Y-3p-C-NE3TA and ^90Y-3-C-NOTA were prepared by a reaction of 3p-C-DETA (1), 3p-C-NE3TA (2) and 3p-C-NOTA (3) (50 μg) with ^90Y (150 μCi) in 0.25 M NH4OAc buffer (pH 7.0). […] The stability of the radiolabeled complexes in human serum was evaluated at 37° C. over 14 days. The serum stability of the radiolabeled complexes was assessed by measuring the transfer of the radionuclide from each complex to serum proteins using ITLC eluted with CH3CN/H2O (3:2 v/v) or 20 mM EDTA in 0.15 M NH4OAc. […]

[5] = In vitro serum stability of 177Lu-radiolabeled 3p-C complexes; format: in vitro ADME; settings: human serum, 37° C., in 72 h
Method: as §1, §2

[6] = In vitro serum stability of 90Y-radiolabeled 5p-C-NETA and NETA-RGD; settings: 37° C., pH 7, 14 days, ITLC
Method: as §3

[7] = In vitro serum stability of 177Lu-radiolabeled 5p-C-NETA and NETA-RGD; settings: 37° C., pH 7, 14 days, ITLC
Method: as §3

[8] = In vitro serum stability of 64Cu-radiolabeled complexes of chelators A-F; format: in vitro ADME; settings: human serum, over 2 days; listed as 64Cu-chelator E
Method: In vitro serum stability of the radiolabeled complexes was performed to determine if the chelators radiolabeled with ^64Cu remained stable without loss of the radioactivity in human serum. This was assessed by measuring the transfer of ^64Cu from the complex to human serum proteins using ITLC (20 mM EDTA in 0.15M NH4OAc, Table 2). ^64Cu-radiolabeled chelators were readily prepared from the reactions of the chelators with ^64Cu at room temperature. Essentially no unbound ^64Cu was detected in the reaction mixture at 2 h time point after the reaction at room temperature as determined by ITLC. The ^64Cu-radiolabeled chelators were directly used for serum stability studies (pH 7, 37° C.) without further purification. All ^64Cu-radiolabeled complexes remained intact in human serum for 2 days as evidenced by ITLC analysis (Supporting Information). […] A tiny amount of ^64Cu (<0.3%) was detected from other ^64Cu-complexes of chelators B, D-F.
The freshly prepared radiolabeled complexes were directly used for serum stability studies without further purification. ^64Cu-radiolabeled complex (85 μCi, 10 μL) was added to human serum (90 μL) in a microcentrifuge tube. The stability of ^64Cu-radiolabeled complexes in human serum was evaluated at 37° C. for 2 days. A solution of the radiolabeled complex in serum was withdrawn at the designated time points and evaluated by ITLC as described above.

[9] = EDTA challenge of 64Cu-radiolabeled complexes of chelators A-F; format: physicochemical; settings: EDTA 100-fold molar excess; for Bound complex (%): 64Cu complex, 37° C.
Method: ^64Cu-radiolabeled complexes were further evaluated for complex stability based on EDTA challenge. ^64Cu-radiolabeled complexes were freshly prepared and treated with a solution of EDTA at a 100-fold molar excess, and the resulting solution (pH 5.5) was incubated at 37° C. for 24 h. […] Among the complexes tested, ^64Cu-radiolabeled pentadentate chelator B was least tolerant of EDTA treated, and most of ^64Cu was dissociated from the complex (˜80%) at 24 h time point. ^64Cu-radiolabeled chelator C containing the carbonyl donor group was found dissociated rapidly in the presence of the excess EDTA, and 50% of the activity was transchelated by EDTA at 1 h time point. ^64Cu-radiolabeled chelators D and F with the respective hydroxyl and thiophenyl donor group were slower in dissociation than ^64Cu-radiolabeled chelators B and C and released >45% of ^64Cu at 24 h time point. Dissociation of the activity from the ^64Cu-radiolabeled chelators was also measured using radio-HPLC at 25 h time point (FIG. 5). The peak related to ^64Cu-EDTA (tR=2.5 min) was clearly separated from bound ^64Cu complex of the chelators. ^64Cu-radiolabeled complex of polar chelators E and F have the respective retention time at […] and 6.2 min, while other ^64Cu-radiolabeled complexes have similar retention time (tR=7˜8 min). The ^64Cu-radiolabeled chelators C and D gave a small peak (tR=˜3 min and tR=˜7 min, respectively).
^64Cu-radiolabeled complexes were prepared by reaction of each chelator (20 μg) with ^64Cu (60 μCi) in 0.25M NH4OAc buffer (pH 5.5) for 2 h at room temperature. The radiolabeled complexes were prepared as described above and directly used for the experiments. ^64Cu-radiolabeled complex was mixed with EDTA at a 100-fold molar excess. The resulting mixture was incubated for 24 h at 37° C. The stability of ^64Cu-radiolabeled complexes in the solution was evaluated using ITLC (20 mM EDTA in 0.15M NH4OAc). A solution of the radiolabeled complex in serum (3˜20 μL) was withdrawn at the designated time points and evaluated by ITLC as described above. Stability of the complexes was also evaluated at 25 h time point by HPLC (solvent A: 0.1% TFA in H2O, solvent B: 0.1% TFA in CH3CN, 0-100% B/15 min, flow rate: 1 mL/min). ^64Cu-EDTA complex was eluted early (tR=˜2.5 min), while ^64Cu-radiolabeled complexes of chelators A-D, E, and F have the respective retention time (tR=7˜8 min, tR=4.6 min, and tR=6.2 min).

[10] = Stability and radioactivity level of 64Cu complexes in mice; format: in vivo; settings: 64Cu complex

In the case of `N=C(N)NCCC[C@@H]1NC(=O)[C@H](CCCCNC(=S)Nc2ccc(CCCCCC(CN3CCN(CC(=O)O)CCN(CC(=O)O)CC3)N(CC(=O)O)CC(=O)O)cc2)NC(=O)[C@@H](Cc2ccc(O)cc2)NC(=O)[C@H](CC(=O)O)NC(=O)CNC1=O` (stereo partly shown) [5p-C-NETA-RGD], the “tumor targeting and biodistribution profile” value [1] is reported as “target tumors in mice and produced a favorable biodistribution profile with rapid blood clearance and low organ uptake”, the “stability of 90Y complex in human serum” value [2] is reported as “remained quite stable in human serum over 2 weeks period” and the “stability of 177Lu complex in human serum” value [3] is reported as “remained quite stable in human serum over 2 weeks period”.

In the case of `O=C(O)CN1CCN(CC(=O)O)CCN(CC(CCCc2ccc([N+](=O)[O-])cc2)N(CC(=O)O)CC(=O)O)CCN(CC(=O)O)CC1` (stereo not shown) [Chelator 3p-C-DEPA], the “90Y transchelated/lost to serum” value [4] is reported as 25% and the “177Lu transchelated to serum” value [5] is reported as 40%.

For `O=C(O)CN1CCN(CC(=O)O)CCN(CC(CCCCCc2ccc([N+](=O)[O-])cc2)N(CC(=O)O)CC(=O)O)CC1` (stereo not shown) [Chelator 5p-C-NETA, 2-({1-[4,7-bis(carboxymethyl)-1,4,7-triazonan-1-yl]-7-(4-nitrophenyl)heptan-2-yl}(carboxy-methyl)amino)acetic acid], the “stability of 90Y complex in human serum” value [6] was “remained stable in human serum without releasing the radioactivity into the serum” and the “stability of 177Lu complex in human serum” value [7] was “remained stable in human serum without releasing the radioactivity into the serum”.

In the case of `O=C(O)CN1CCN(CC(=O)O)CCN(Cc2ccccn2)CC1` [Chelator E, 2-[4-(carboxymethyl)-7-(pyridin-2-ylmethyl)-1,4,7-triazonan-1-yl]acetic acid], the “64Cu dissociated/released from the complex in serum” value [8] is reported as “No measurable radioactivity was released”, the “Bound complex (%)” value ([9]; pH 5.5, ITLC, 0 h) is reported as 99.7 ± 0.1% and the “Bound complex (%)” value ([9]; pH 5.5, ITLC, 1 h) is reported as 98.2 ± 0.3%. The “Bound complex (%)” value ([9]; pH 5.5, ITLC, 4 h) was 92.6 ± 0.3%, the “Bound complex (%)” value ([9]; pH 5.5, ITLC, 19 h) was 93.6 ± 0.1% and the “Bound complex (%)” value ([9]; pH 5.5, ITLC, 24 h) was 94.3 ± 0.6%. The “Bound complex (%)” value ([9]; pH 5.5, radio-HPLC, 25 h) was 93.1 ± 0.1%, the “64Cu activity dissociated from the complex / transferred to EDTA” value ([9]; 24 h time point) was roughly 5% and the “stability in mice and radioactivity level in blood and normal organs” value [10] was “stable in mice and displayed low radioactivity level in the blood and the normal organs”.
